Data from the CheMixHub ionic liquid set.
± gives the uncertainty stated by the source.

Experiment: xn = mol fraction of the nth substance listed

CC[N+](CC)(CC)CC.[Cl-] + Oc1ccccc1
viscosity [mPa·s], 101 kPa
Conditions | 303.15 K | 323.15 K
x1 = 0.2 | 34.1 ± 1.1 | 14.34 ± 0.47
x1 = 0.25 | 38.6 ± 1.3 | –

CCCC[n+]1ccn(C)c1.N#C[S-] + [Br-].[Li+] + CN1CCCC1=O
298.15 K, 101 kPa
Conditions | viscosity [mPa·s]
x1 = 0.001086, x2 = 0.02623 | 2.384 ± 0.029
x1 = 0.001092, x2 = 0.05108 | 3.161 ± 0.037
x1 = 0.001138, x2 = 0.07527 | 4.38 ± 0.051
x1 = 0.002508, x2 = 0.07516 | 4.412 ± 0.051
x1 = 0.002857, x2 = 0.02618 | 2.408 ± 0.029
x1 = 0.003083, x2 = 0.05098 | 3.197 ± 0.038
x1 = 0.004195, x2 = 0.07504 | 4.452 ± 0.051
x1 = 0.004231, x2 = 0.02614 | 2.429 ± 0.029
x1 = 0.004315, x2 = 0.05092 | 3.225 ± 0.038
x1 = 0.005622, x2 = 0.05085 | 3.261 ± 0.038
x1 = 0.005708, x2 = 0.02611 | 2.45 ± 0.03
x1 = 0.006129, x2 = 0.07489 | 4.48 ± 0.052
x1 = 0.007405, x2 = 0.02606 | 2.464 ± 0.03
x1 = 0.007466, x2 = 0.07479 | 4.509 ± 0.052
x1 = 0.007731, x2 = 0.05075 | 3.29 ± 0.039
x1 = 0.008848, x2 = 0.07469 | 4.531 ± 0.052
x1 = 0.008873, x2 = 0.02602 | 2.492 ± 0.03
x1 = 0.009097, x2 = 0.05068 | 3.316 ± 0.039
x1 = 0.01032, x2 = 0.07458 | 4.563 ± 0.053
x1 = 0.01035, x2 = 0.02598 | 2.521 ± 0.03
x1 = 0.01065, x2 = 0.0506 | 3.345 ± 0.039
x1 = 0.01201, x2 = 0.02594 | 2.555 ± 0.031
x1 = 0.01214, x2 = 0.05052 | 3.376 ± 0.04
x1 = 0.01216, x2 = 0.07444 | 4.604 ± 0.053

CCCC[n+]1ccn(C)c1.N#C[S-] + [Cl-].[Li+] + CN1CCCC1=O
298.15 K, 101 kPa
Conditions | viscosity [mPa·s]
x1 = 0.000959, x2 = 0.03815 | 2.65 ± 0.035
x1 = 0.001063, x2 = 0.07221 | 3.61 ± 0.047
x1 = 0.001192, x2 = 0.104 | 4.991 ± 0.064
x1 = 0.002304, x2 = 0.07212 | 3.657 ± 0.048
x1 = 0.002399, x2 = 0.03809 | 2.683 ± 0.036
x1 = 0.00252, x2 = 0.1039 | 5.021 ± 0.065
x1 = 0.003854, x2 = 0.03804 | 2.715 ± 0.036
x1 = 0.003994, x2 = 0.072 | 3.706 ± 0.048
x1 = 0.00415, x2 = 0.1037 | 5.048 ± 0.065
x1 = 0.005535, x2 = 0.03797 | 2.75 ± 0.036
x1 = 0.005737, x2 = 0.1036 | 5.082 ± 0.065
x1 = 0.005932, x2 = 0.07186 | 3.734 ± 0.049
x1 = 0.006974, x2 = 0.07178 | 3.765 ± 0.049
x1 = 0.007127, x2 = 0.1034 | 5.104 ± 0.066
x1 = 0.007392, x2 = 0.0379 | 2.777 ± 0.037
x1 = 0.008668, x2 = 0.1032 | 5.141 ± 0.066
x1 = 0.008714, x2 = 0.07165 | 3.796 ± 0.049
x1 = 0.009327, x2 = 0.03783 | 2.805 ± 0.037
x1 = 0.009861, x2 = 0.07157 | 3.834 ± 0.05
x1 = 0.009986, x2 = 0.1031 | 5.166 ± 0.066
x1 = 0.01105, x2 = 0.03776 | 2.846 ± 0.038
x1 = 0.01164, x2 = 0.1029 | 5.198 ± 0.067
x1 = 0.01191, x2 = 0.07142 | 3.877 ± 0.05
x1 = 0.01372, x2 = 0.03766 | 2.869 ± 0.038

CC(=O)[O-].CC[n+]1ccn(C)c1 + [Cl-].[NH4+]
101 kPa, x2 = 0
Conditions | electrical conductivity [S/m] | viscosity [mPa·s]
308.15 K | 0.473 ± 0.0095 | 71.3 ± 4.6
318.15 K | 0.76 ± 0.015 | 44.2 ± 2.9

CCCC[n+]1ccn(C)c1.N#C[N-]C#N + [I-].[Li+]
101 kPa, x1 = 1
Conditions | electrical conductivity [S/m]
288.15 K | 0.611 ± 0.061
298.15 K | 0.883 ± 0.089
333.15 K | 2.18 ± 0.22

CC(=O)[O-].CC[n+]1ccn(C)c1 + [N-]=C=S.[NH4+]
313.15 K, 101 kPa, x2 = 0
Conditions | electrical conductivity [S/m] | viscosity [mPa·s]
– | 0.6 ± 0.019 | 56.4 ± 1.5

CCCC[P+](CCCC)(CCCC)CCCC.CS(=O)(=O)[O-] + c1c[nH]cn1
101.33 kPa, x1 = 0.5
Conditions | viscosity [mPa·s]
313.05 K | 100 ± 21
353.05 K | 21.6 ± 4.4

CCCC[n+]1ccn(C)c1.N#C[S-] + c1ccccc1
viscosity [mPa·s], 100 kPa
Conditions | x2 = 0 | x2 = 0.2334 | x2 = 0.258 | x2 = 0.3919 | x2 = 0.5094
298.15 K | 62.8 ± 3.2 | 33 ± 1.7 | 30.7 ± 1.6 | 20.1 ± 1.1 | 12.51 ± 0.69
308.15 K | 40.6 ± 2.1 | 22.5 ± 1.2 | 21.1 ± 1.1 | 14.29 ± 0.78 | 9.27 ± 0.52
318.15 K | 27.8 ± 1.5 | 16.2 ± 0.88 | 15.23 ± 0.83 | 10.64 ± 0.59 | 7.16 ± 0.42
328.15 K | 20.1 ± 1.1 | 12.19 ± 0.67 | 11.52 ± 0.64 | 8.25 ± 0.47 | 5.65 ± 0.34
